The results in this text go back to patent US7459450B2, “Neuropeptide receptor modulators” (Schering Corporation, priority 2004, dated 2008).

One test has as its target T1, Human NPY Y1 receptors (Homo sapiens, UniProt P25929).
T1 construct: expressed in transfected cells; host or cells: CHO cells (membrane protein)
T1 sequence (P25929 1-384): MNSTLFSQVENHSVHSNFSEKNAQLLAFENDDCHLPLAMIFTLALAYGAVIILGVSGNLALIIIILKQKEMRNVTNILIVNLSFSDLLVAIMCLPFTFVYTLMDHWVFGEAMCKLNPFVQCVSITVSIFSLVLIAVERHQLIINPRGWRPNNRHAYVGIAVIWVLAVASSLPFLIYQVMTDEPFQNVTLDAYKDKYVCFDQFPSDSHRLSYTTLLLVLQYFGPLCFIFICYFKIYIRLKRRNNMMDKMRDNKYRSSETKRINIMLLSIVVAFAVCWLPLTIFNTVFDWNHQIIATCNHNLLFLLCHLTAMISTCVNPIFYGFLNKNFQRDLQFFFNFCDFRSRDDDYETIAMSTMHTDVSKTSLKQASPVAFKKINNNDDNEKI
The test is described as follows: NPY Receptor Binding Assay. To be noted: Procedure D compound, rated A/B/C.
Take `COC1CN=C(Nc2ccc(CCNc3nc4ccccc4s3)cc2)S1` (stereo not shown) [compound 61]: the Ki (as a rule, a measure of affinity in units of concentration, obtained from inhibition or displacement) lay in the range of 1 to 10 µM.

The same test, now with this note: Procedure H compounds, rated A/B/C.
Regarding `O=C1N=C(Nc2ccc(CCNc3nc4ccccc4s3)cc2)SC1CCO` (stereo not shown) [Example 441], the Ki is above 10 µM.
`CCCCC1SC(Nc2ccc(CCNc3nc4ccccc4s3)cc2)=NC1=O` (stereo not shown) [Example 442]: the Ki was above 10 µM.
`CCC1SC(Nc2ccc(CCNc3nc4ccccc4s3)cc2)=NC1=O` (stereo not shown) [Example 443] showed a Ki above 10 µM.
In turn, `O=C1N=C(Nc2ccc(CCNc3nc4ccccc4s3)cc2)SC1c1ccccc1` (stereo not shown) [Example 444] displayed a Ki above 10 µM.
`O=C1N=C(Nc2ccc(CCNc3nc4ccccc4s3)cc2)SC1c1ccccc1O` (stereo not shown) [Example 445] had a Ki above 10 µM.
On the same count and under the same terms, the figure for `CCCC1SC(Nc2ccc(CCNc3nc4ccccc4s3)cc2)=NC1=O` (stereo not shown) [Example 446] is above 10 µM; for `CCCCCC1SC(Nc2ccc(CCNc3nc4ccccc4s3)cc2)=NC1=O` (stereo not shown) [Example 447] it is above 10 µM.

The same test, now with this note: Procedure I compounds, column head blank, rated A/B/C.
In the case of `c1ccc(C2CCCCC(Nc3ccc(CCNc4nc5ccccc5s4)cc3)=N2)cc1` (stereo not shown) [Example 448], the Ki is 1 to 10 µM.
The compound `c1ccc(C2CCCC(Nc3ccc(CCNc4nc5ccccc5s4)cc3)=N2)cc1` (stereo not shown) [Example 449] showed a Ki of 1 to 10 µM.
